Some test systems named below: 786-0 renal; A498 renal; ACHN renal; EKVX NSCLC; HCT-116 colon; HCT-15 colon; K-562 leukemia; MDA-MB-231 breast; MDA-N; MOLT-4 leukemia; NCI-H460 lung; OVCAR-4 ovarian; OVCAR-5 ovarian; RPMI-8226 leukemia; SF-539 CNS; SK-MEL-2 melanoma; SK-MEL-28 melanoma; SW-620 colon; UACC-62 melanoma; UO-31 renal.
What all share (assay): inhibition of tumour cell growth, NCI panel, 48 h

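Assay format: 96-well plates, 48-hour exposure. TGI is the concentration that stops growth completely.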 Bounds are passed on as bounds.

As to `Cc1cccc(C)c1NC(=O)C(=O)CC(=O)/C=C/c1ccccc1`, the TGI in the test with 786-0 renal, with A498 renal, in the test with ACHN renal, in the test with EKVX NSCLC, with HCT-116 colon and in the test with HCT-15 colon was > 100 µM in each case. The TGI in the test on K-562 leukemia, in the test on MDA-MB-231 breast, in the test with MDA-N, in the test on MOLT-4 leukemia, in the test on NCI-H460 lung and in the test with OVCAR-4 ovarian was > 100 µM throughout. Besides, the TGI in the test with OVCAR-5 ovarian, in the test with RPMI-8226 leukemia, with SF-539 CNS, in the test on SK-MEL-2 melanoma, with SK-MEL-28 melanoma and with SW-620 colon was > 100 µM throughout. Also, the TGI with UACC-62 melanoma and with UO-31 renal was > 100 µM each time.
For `CCCCCCc1ccc(C(=O)NO)cc1`, the TGI in the test on 786-0 renal was 46.6 µM; in the test with A498 renal, 81.7 µM; in the test with ACHN renal, 88.5 µM; with EKVX NSCLC, > 100 µM; with HCT-116 colon, > 100 µM; in the test on HCT-15 colon it was > 100 µM. For the same compound, the TGI with K-562 leukemia is > 100 µM; in the test with MDA-MB-231 breast, > 100 µM; with MDA-N it was > 100 µM; in the test on MOLT-4 leukemia it was 50 µM; in the test on NCI-H460 lung, 72.3 µM; in the test with OVCAR-4 ovarian, 84.4 µM. For the same compound, the TGI in the test on OVCAR-5 ovarian is > 100 µM; in the test on RPMI-8226 leukemia, 56.8 µM; with SF-539 CNS, > 100 µM; in the test on SK-MEL-2 melanoma, > 100 µM; in the test on SK-MEL-28 melanoma, > 100 µM; in the test with SW-620 colon, > 100 µM. For the same compound, the TGI came out at 66.6 µM with UACC-62 melanoma and 48.7 µM in the test on UO-31 renal.
On to `N#CC1C(=O)SC2c3ccccc3C(=O)c3ccccc3C12` (stereo not given), for which the TGI in the test on 786-0 renal, with A498 renal, with ACHN renal, in the test with EKVX NSCLC, in the test with HCT-116 colon and in the test on HCT-15 colon was > 10 µM throughout. Also, the TGI with K-562 leukemia, in the test with MDA-MB-231 breast, in the test on MDA-N, in the test on MOLT-4 leukemia, in the test on NCI-H460 lung and in the test on OVCAR-4 ovarian was > 10 µM each time. In addition, the TGI with OVCAR-5 ovarian, in the test with RPMI-8226 leukemia, with SF-539 CNS, in the test on SK-MEL-2 melanoma, in the test on SK-MEL-28 melanoma and in the test on SW-620 colon was > 10 µM throughout. Besides, the TGI with UACC-62 melanoma and with UO-31 renal was > 10 µM throughout.
Consider `CCn1c(SCC(=O)N/N=C/c2ccccc2)nc2ccccc2c1=O`, for which the TGI was 41.7 µM with 786-0 renal; 65 µM with A498 renal; > 100 µM with ACHN renal; > 100 µM with EKVX NSCLC; > 100 µM in the test on HCT-116 colon; > 100 µM with HCT-15 colon. Moreover, the TGI in the test on K-562 leukemia was > 100 µM; in the test on MDA-MB-231 breast, 80.8 µM; with MDA-N it was > 29.3 µM; with MOLT-4 leukemia, > 100 µM; in the test on NCI-H460 lung it was 9.63 µM; in the test with OVCAR-4 ovarian it was 72.8 µM. Also, the TGI with OVCAR-5 ovarian was > 100 µM; with RPMI-8226 leukemia, > 100 µM; in the test on SF-539 CNS, 38.4 µM; in the test with SK-MEL-2 melanoma it was > 46.4 µM; in the test with SK-MEL-28 melanoma, > 100 µM; in the test with SW-620 colon, > 100 µM. Also, the TGI in the test with UACC-62 melanoma was 52.1 µM; with UO-31 renal, > 100 µM.
As for `COc1ccc(-c2c3c(cc4cc5c(cc24)OCO5)C(=O)OC3)cc1OC`, the TGI with 786-0 renal was 13.9 µM; in the test on A498 renal it was > 49.6 µM; with ACHN renal, > 100 µM; in the test with EKVX NSCLC, > 75.6 µM; with HCT-116 colon it was 12.1 µM; in the test on HCT-15 colon, 18.3 µM. The TGI in the test with K-562 leukemia was > 36.8 µM; in the test on MDA-MB-231 breast it was 25.4 µM; with MDA-N it was 13.3 µM; in the test with MOLT-4 leukemia it was 20.4 µM; in the test on NCI-H460 lung, 15.9 µM; in the test with OVCAR-4 ovarian, > 100 µM. Besides, the TGI with OVCAR-5 ovarian was > 100 µM; in the test with RPMI-8226 leukemia, 9.98 µM; in the test with SF-539 CNS it was 24.6 µM; in the test on SK-MEL-2 melanoma, 4.91 µM; in the test with SK-MEL-28 melanoma it was 9.38 µM; in the test on SW-620 colon, 11.7 µM. Also, the TGI with UACC-62 melanoma was 1.84 µM; in the test on UO-31 renal it was 14.1 µM.
For `CC1(C)CC2=C(Sc3ccccc3N2)C(=O)C1C(=O)C(=O)Nc1cccc([N+](=O)[O-])c1` (stereo not given), the TGI in the test on 786-0 renal, with A498 renal, in the test with ACHN renal, with EKVX NSCLC, in the test on HCT-116 colon and in the test with HCT-15 colon was > 100 µM in each case. Moreover, the TGI in the test with K-562 leukemia, in the test on MDA-MB-231 breast, in the test with MDA-N, in the test on MOLT-4 leukemia, in the test on NCI-H460 lung and in the test with OVCAR-4 ovarian was > 100 µM in each case. In addition, the TGI in the test on OVCAR-5 ovarian, in the test with RPMI-8226 leukemia, with SF-539 CNS, in the test with SK-MEL-2 melanoma, in the test on SK-MEL-28 melanoma and in the test on SW-620 colon was > 100 µM each time. In addition, the TGI in the test with UACC-62 melanoma and with UO-31 renal was > 100 µM each time.
`CN(C)CCCn1c(Cc2ccc(Cl)cc2)nc2cc(C(F)(F)F)ccc21`: the TGI in the test on 786-0 renal was determined as 27 µM; with A498 renal, 25.5 µM; with ACHN renal it was 26 µM; with EKVX NSCLC it was 32.7 µM; in the test with HCT-116 colon it was 25 µM; in the test on HCT-15 colon, 32.8 µM. Besides, the TGI in the test on K-562 leukemia was > 32.5 µM; with MDA-MB-231 breast, 26.5 µM; in the test on MDA-N, 25.4 µM; with MOLT-4 leukemia, 34.5 µM; in the test with NCI-H460 lung, 26 µM; in the test with OVCAR-4 ovarian, 27.6 µM. Also, the TGI in the test on OVCAR-5 ovarian is 32.5 µM; in the test on RPMI-8226 leukemia, > 100 µM; with SF-539 CNS, 32.2 µM; in the test with SK-MEL-2 melanoma it was 31 µM; in the test with SK-MEL-28 melanoma, 33.5 µM; in the test on SW-620 colon it was > 57.8 µM. For the same compound, the TGI came out at 31.2 µM in the test with UACC-62 melanoma and 1 µM in the test on UO-31 renal.

The values above are taken from PubChem BioAssay (NCI).
